In patent US20080064705A1, “Theophylline-based nitophenylpiperazine derivatives for enhancing aortic smooth muscle relaxation” (KAOHSIUNG MEDICAL UNIVERSITY, priority 2006, published 2008):
Counter-ions that a name gives are not always drawn.

Experiments:
cAMP levels in RASMCs = experiment: Intracellular cAMP levels in RASMCs (radioimmunoassay); format: cell-based, rat
Procedure: (§1) Rat aortic smooth muscles were obtained as sterile surgical specimens. The tissue was washed and cut into 1- to 2-mm pieces and placed into culture dishes with Dulbecco modified Eagle medium (DMEM) containing 20% fetal bovine serum (FBS), 100 U/mL penicillin G, […], and 2 mM glutamine. After these explants attached to the culture dish, usually in 1 to 2 days, DMEM supplemented with 10% FBS, penicillin, streptomycin, and glutamine was added. Rat aortic smooth muscle cells (RASMCs) migrated from the explants in 3-5 days. At this time, the explants were removed, and cells were allowed to achieve confluence. Cells were detached using 0.05% trypsin and 0.02% EDTA at 37° C. for 5 minutes to establish secondary cultures. Cultures were maintained for no more than 4 passages. To exclude contamination by endothelial cells and fibroblasts, the cell homogeneity was further confirmed by the presence of smooth muscle-specific α-actin and α-myosin. Indirect immunofluorescence staining for a variety of antigens was carried out by first plating the cells on chamber slides, fixing the cells in 3.7% formaldehyde in phosphate-buffered saline for 10 minutes, and then permeabilizing the cells with phosphate-buffered saline plus 0.1% Triton X-100. Cells were stained with a mouse monoclonal antibody directed against the amino-terminal 10 amino acids of a-smooth muscle actin and α-myosin (Boehringer Mannheim, Indianapolis, Ind.). All were stained with fluoresceinlabeled goat anti-mouse IgG antibody.
(§2) Intracellular cGMP and cAMP levels in RASMCs were described previously (Wu B N, Lin R J, Lin C Y, et al., Br J Pharmacol., 134, 265-274, 2001). In brief, cells were grown in 24-well plates (10^5 cells/well). At confluence, monolayer cells are washed with phosphate buffer solution (PBS) and then incubated with KMUP-3, KMUP-4, or other PDE inhibitors (10 or 100 μM) for 20 minutes. Incubation is terminated by the addition of 10% trichloroacetic acid (TCA). Cell suspensions are sonicated and then centrifuged at 2500 g for 15 minutes at 4° C. To remove TCA, the supernatants are extracted 3 times with 5 volumes of water-saturated diethyl ether. Then, the supernatants are lyophilized, and cGMP or cAMP of each sample is determined by using commercially available radioimmunoassay kits (Amersham Pharmacia Biotech, Buckinghamshire, England).

rat aortic rings = experiment: Relaxation of precontracted isolated rat aortic rings (isometric tension, organ bath); settings: for effect on potency of isoproterenol or SNP (concentration-response curve shift): 1 μM pretreatment, endothelium-denuded rings; for effect on potency of isoproterenol or SNP (concentration-response curve shift) / maximal relaxation (Emax) / aortic relaxations in presence of K+ channel blockers: PE 10 μM; for inhibition of relaxation by L-NAME / relaxations in presence of ODQ or SQ 22536: E- rat thoracic aorta; for inhibition of relaxation by L-NAME / vasorelaxant responses after pretreatment with L-NAME, ODQ, SQ 22536 or indomethacin: L-NAME 100 μM; for relaxations in presence of ODQ or SQ 22536 / vasorelaxant responses after pretreatment with L-NAME, ODQ, SQ 22536 or indomethacin: ODQ 1 μM, SQ 22536 100 μM; for maximal relaxation (Emax): endothelium-denuded (E-) condition; for pEC50 of vasorelaxation: precontracted with PE 10 μM, cumulative 1 nM-100 μM; for vasorelaxations with ODQ combined with SQ 22536: endothelium-intact or endothelium-denuded aortic rings; for vasorelaxant responses after pretreatment with L-NAME, ODQ, SQ 22536 or indomethacin: endothelium-intact rat thoracic aorta, indomethacin 10 μM; for relaxation in the presence of 80 mM K+ solution versus PE: endothelium-intact rings precontracted with 80 mM K+, 1 nM-100 μM; for aortic relaxations in presence of K+ channel blockers: TEA 10 mM, glibenclamide 1 μM, 4-AP 100 μM, apamin 1 μM, ChTX 0.1 μM
Procedure: The aortic rings were prepared as follows. 24 Rats (200-300 g) were killed under mild anesthesia with ether, and their aortas were quickly excised.
Isometric tension was recorded with a force displacement transducer (Grass, Model FT03, Quincy, Mass.). The endothelium layer was removed mechanically by inserting the tip of a pair of forceps into the lumen and rolling the tissue back and forth several times on a paper towel moistened with physiological salt solution. At the beginning of each experiment, aortic rings were stretched to a resting tension of 1.5 g and then contracted with phenylephrine (PE, […]), and once the contractions had reached a plateau, the endothelial integrity of the preparations (abbreviated as endothelium-intact in the following) or absence of endothelium (abbreviated as E^− in the following) was verified by adding ACh ([…]) to the superfusate. […] The preparations were then washed and allowed to equilibrate with Krebs solution for 45 minutes before being contracted a second time with PE. When the stable vasoconstriction to PE (10 μM) was reached, concentration-response curves to KMUP-3 and KMUP-4 (1 nM-100 μM) were constructed. Additionally, aortic rings were preconstricted with 80 mM KCl. When the contraction reached a steady state, cumulative concentration-response curves to KMUP-3 and KMUP-4 (1 nM-100 μM) were determined. In this experiment, the high-K^+ solution was prepared by replacing NaCl with KCl (80 mM) in an equimolar amount.

PDE4 = PDE4 enzyme inhibitory activity (method of Hidaka and Asano); format: biochemical, human; set-up: dose or concentration left out as unconfirmed; settings: n=3
Procedure: (§3) PDE activities were determined by the method of Hidaka and Asano (Hidaka H, Asano T., Biochim Biophys Acta., 429, 485-497, 1976). Washed human platelets were used for both PDE3 and PDE5 analyses, and human U937 cells for PDE4. Purified protein containing PDE3, PDE4, or PDE5 enzyme was resuspended in 50 mM Tris-HCl containing 5 mM MgCl2 (pH 7.5). […] After 20 minutes at 37° C., the samples were heated to 100° C. for 2 minutes. Ophiophagis Hannah snake venom (10 mg/mL, […]) was then added and incubated at 37° C. for 10 minutes to convert the 5′-GMP and 5′-AMP to the uncharged nucleosides guanosine and adenosine, respectively. An ion-exchange resin ([…]) was added to bind all unconverted cGMP or cAMP. After centrifuging, the supernatant was removed for determination of radiolabeled guanosine or adenosine by a liquid scintillation counter.

PDE3 = PDE3 (Homo sapiens, UniProt Q14432); set-up: dose or concentration left out as unconfirmed; settings: n=3
Procedure: as §3

PDE5 = PDE5 (Homo sapiens, UniProt O76074); set-up: dose or concentration left out as unconfirmed; settings: n=3
Procedure: as §3

eNOS in HUVECs = experiment: eNOS protein expression in HUVECs (Western blot, densitometry); format: cell-based, human; settings: for time at which maximal eNOS protein expression was achieved: 0.1 μM; for expression of eNOS protein: 0.1 μM (also 0.1 mM in source), 18 hours
Procedure: Human umbilical vein endothelial cells (HUVECs, American Type Culture Collection, Rockville, Md.) were cultured in F12 nutrient mixture medium supplemented with 10% FBS, 1.6 mM L-glutamine, […] endothelial cell growth supplement, 100 U/mL penicillin, […], and 10 U/mL heparin. HUVECs of passages 3-5 were used for all experiments.
Endothelial cells were processed, and eNOS protein abundance was determined by Western blot analysis using anti-eNOS antibody (BD Transduction Laboratories, San Diego, Calif.) in a manner that was similar to that described in our previous study.

cGMP levels in RASMCs = experiment: Intracellular cGMP levels in RASMCs (radioimmunoassay); format: cell-based, rat
Procedure: as §1, §2

[1] = Table 1, 10 μM of test agent, RASMCs, 20 minutes
[2] = Table 2, 10 μM of test agent alone
[3] = Table 2, 10 μM of test agent plus SQ 22536 (100 μM)
[4] = Table 1, 100 μM of test agent, RASMCs, 20 minutes
[5] = Table 2, 100 μM of test agent alone
[6] = Table 2, 100 μM of test agent plus ODQ (10 μM)
[7] = Table 3, SNP (100 μM) plus agent (100 μM)

Sequence of PDE3 (Q14432 whole entry): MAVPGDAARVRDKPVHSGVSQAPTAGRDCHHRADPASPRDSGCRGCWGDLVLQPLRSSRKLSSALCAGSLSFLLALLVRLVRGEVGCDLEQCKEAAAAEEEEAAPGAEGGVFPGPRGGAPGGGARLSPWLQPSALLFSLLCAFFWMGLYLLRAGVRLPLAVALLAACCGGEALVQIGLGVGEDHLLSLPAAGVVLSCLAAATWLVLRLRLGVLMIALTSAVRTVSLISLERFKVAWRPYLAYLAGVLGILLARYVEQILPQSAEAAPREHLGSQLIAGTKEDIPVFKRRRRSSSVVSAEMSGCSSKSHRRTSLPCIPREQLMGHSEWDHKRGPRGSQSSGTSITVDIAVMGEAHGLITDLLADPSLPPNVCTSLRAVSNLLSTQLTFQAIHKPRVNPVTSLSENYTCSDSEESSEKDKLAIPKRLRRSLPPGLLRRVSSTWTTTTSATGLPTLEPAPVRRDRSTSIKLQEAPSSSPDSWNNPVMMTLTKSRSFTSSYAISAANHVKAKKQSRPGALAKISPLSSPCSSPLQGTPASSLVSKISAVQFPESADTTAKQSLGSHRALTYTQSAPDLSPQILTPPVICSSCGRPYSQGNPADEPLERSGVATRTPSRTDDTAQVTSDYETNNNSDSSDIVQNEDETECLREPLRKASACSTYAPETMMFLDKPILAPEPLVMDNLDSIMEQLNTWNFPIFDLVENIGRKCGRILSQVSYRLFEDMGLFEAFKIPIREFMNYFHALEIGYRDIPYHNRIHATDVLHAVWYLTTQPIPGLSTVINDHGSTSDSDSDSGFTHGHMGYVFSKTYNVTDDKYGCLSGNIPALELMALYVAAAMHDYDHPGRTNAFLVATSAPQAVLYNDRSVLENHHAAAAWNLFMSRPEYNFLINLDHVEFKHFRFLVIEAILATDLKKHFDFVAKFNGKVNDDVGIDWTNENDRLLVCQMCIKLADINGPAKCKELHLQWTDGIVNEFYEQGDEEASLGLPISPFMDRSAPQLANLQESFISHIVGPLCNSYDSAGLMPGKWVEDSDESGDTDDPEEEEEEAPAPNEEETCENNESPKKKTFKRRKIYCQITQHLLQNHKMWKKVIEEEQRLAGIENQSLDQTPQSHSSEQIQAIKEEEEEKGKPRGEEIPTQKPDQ

SMILES	cAMP (pmol/10^5 Cells) (cAMP levels in RASMCs; [1])	cAMP (pmol/10^5 Cells) (cAMP levels in RASMCs; [2])	cAMP (pmol/10^5 Cells) (cAMP levels in RASMCs; [3])	effect on potency of isoproterenol or SNP (concentration-response curve shift) (rat aortic rings)	inhibition of relaxation by L-NAME (rat aortic rings)	relaxations in presence of ODQ or SQ 22536 (rat aortic rings)	maximal relaxation (Emax) (rat aortic rings) [%]	pEC50 of vasorelaxation (rat aortic rings; endothelium-denuded aorta (E-))	pEC50 of vasorelaxation (rat aortic rings; endothelium-intact aorta)	vasorelaxations with ODQ combined with SQ 22536 (rat aortic rings)	vasorelaxant responses after pretreatment with L-NAME, ODQ, SQ 22536 or indomethacin (rat aortic rings)	relaxation in the presence of 80 mM K+ solution versus PE (rat aortic rings)	aortic relaxations in presence of K+ channel blockers (rat aortic rings; endothelium-intact)	enzyme inhibitory activity for PDE4 (PDE4) [%]	enzyme inhibitory activity for PDE3 (PDE3) [%]	enzyme inhibitory activity for PDE5 (PDE5) [%]	time at which maximal eNOS protein expression was achieved (eNOS in HUVECs) [h]	expression of eNOS protein (eNOS in HUVECs)	cGMP (fmol/10^5 cells) (cGMP levels in RASMCs; [7])	cGMP (fmol/10^5 cells) (cGMP levels in RASMCs; Table 3, agent alone, 100 μM)	other results
Cn1c(=O)c2c(ncn2CCN2CCN(c3ccc([N+](=O)[O-])cc3)CC2)n(C)c1=O [KMUP-3, 7-[2-[4-(4-nitrobenzene)-piperazinyl]ethyl]-1,3-dimethylxanthine]	16.18 ± 1.15	16.28 ± 1.20	10.30 ± 0.82	markedly increased the potency	do not exhibit any significant inhibition	attenuated	73±3.9	5.08±0.03	6.21±0.10	additive effect to diminish the vasorelaxations	reduced	great reduction of relaxation	reduced	48±2.4	55±3.1	48±2.6	18	significantly increased	94.57 ± 7.85	62.50 ± 5.21	cGMP (fmol/10^5 cells) (cGMP levels in RASMCs; [4]): 64.51 ± 4.68 fmol/10^5 Cells; cGMP (fmol/10^5 cells) (cGMP levels in RASMCs; [5]): 65.02 ± 4.75 fmol/10^5 cells; cGMP (fmol/10^5 cells) (cGMP levels in RASMCs; [6]): 34.26 ± 2.89 fmol/10^5 cells
Cn1c(=O)c2c(ncn2CCN2CCN(c3ccccc3[N+](=O)[O-])CC2)n(C)c1=O [KMUP-4, 7-[2-[4-(2-nitrobenzene)piperazinyl]ethyl]-1,3-dimethylxanthine]	15.42 ± 1.63	15.54 ± 1.60	9.69 ± 0.75	markedly increased the potency	do not exhibit any significant inhibition	attenuated	99±4.3	5.94±0.09	6.45±0.12	additive effect to diminish the vasorelaxations	reduced	great reduction of relaxation	reduced	33±1.7	56±2.8	15±3.1	18	significantly increased	81.24 ± 6.90	55.10 ± 5.59	vasorelaxations at high concentrations in presence of 4-AP and TEA (rat aortic rings; concentrations up to 30 and 100 μM, 4-AP and TEA respectively, endothelium-intact): not significantly affected; cGMP (fmol/10^5 cells) (cGMP levels in RASMCs; [4]): 55.28 ± 5.69 fmol/10^5 Cells; cGMP (fmol/10^5 cells) (cGMP levels in RASMCs; [5]): 55.35 ± 5.60 fmol/10^5 cells; cGMP (fmol/10^5 cells) (cGMP levels in RASMCs; [6]): 32.10 ± 2.63 fmol/10^5 cells
O=c1onc2cnc3ccccc3n12 [ODQ, 1H-[1,2,4]oxadiazolo[4,3-a]quinoxalin-1-one, reference compound]	–	–	–	–	–	–	–	–	–	–	–	–	–	–	–	–	–	–	–	–	cGMP (fmol/10^5 cells) (cGMP levels in RASMCs; Table 2, ODQ (10 μM) alone): 29.11 ± 2.53 fmol/10^5 cells
Nc1ncnc2c1ncn2C1CCCO1 (stereo not drawn) [SQ 22536, 9-(terahydro-2-furanyl)-9H-purin-6-amine, reference compound]	–	–	–	–	–	–	–	–	–	–	–	–	–	–	–	–	–	–	–	–	cAMP (pmol/10^5 Cells) (cAMP levels in RASMCs; Table 2, SQ 22536 (100 μM) alone): 6.41 ± 0.41 pmol/10^5 Cells
CCCc1nn(C)c2c(=O)[nH]c(-c3cc(S(=O)(=O)N4CCN(C)CC4)ccc3OCC)nc12 [Sildenafil, Sildenafil citrate, reference compound]	–	–	–	–	–	–	–	–	–	–	–	–	–	–	–	–	–	–	90.49 ± 8.96	64.51 ± 4.58	–
